Data taken from patent US20210278408A1, “METHODS OF TREATMENT OF CANCER WITH SUBSTITUTED PYRROLE AND PYRAZOLE COMPOUNDS AND DIAGNOSIS OF CANCERS SUSCEPTIBLE TO TREATMENT WITH SUBSTITUTED PYRROLE AND PYRAZOLE COMPOUNDS” (Bantam Pharmaceutical, LLC, priority 2018, published 2021).

Tested on: BJAB (malignant human B-cell-line)
Assay: BJAB cell proliferation
Type: cell-based
Parameters: scale not given here
Conditions: BJAB (malignant human B-cell-line) cell proliferation, EC50
Excerpt: In certain embodiments, the therapeutic compound is one of the compounds of the compound table below. […] In certain embodiments, the therapeutic compound is a compound having an activity as “A,” “B” or “C” in the table below. In certain embodiments, the therapeutic compound is a compound having an activity as “A” or “B” in the table below. In certain embodiments, the therapeutic compound is a compound having an activity as “A” in the table below.
In certain embodiments, the therapeutic compound is one of the compounds of the compound table below, optionally provided as a pharmaceutically-acceptable salt or N-oxide, and/or a solvate or hydrate. […] In certain embodiments, the therapeutic compound is a compound having an activity as “A,” “B” or “C” in the table below. In certain embodiments, the therapeutic compound is a compound having an activity as “A” or “B” in the table below. In certain embodiments, the therapeutic compound is a compound having an activity as “A” in the table below.

SMILES	BJAB
Cc1cc(-c2cn(-c3nc(-c4ccc(Cl)c(Cl)c4)c(SC(C)C)s3)nc2C)cc(C)n1 [Compound B9, 4-(3,4-dichlorophenyl)-2-(4-(2,6-dimethylpyridin-4-yl)-3-methyl-1H-pyrazol-1-yl)-5-(isopropylthio)thiazole]	A, C, L

Same assay, conditions: BJAB (malignant human B-cell-line) cell proliferation, EC50; read-out: BJAB

SMILES	EC50 [µM]
Cc1cc(C(=O)O)n(-c2nc(-c3ccc(Cl)cc3OC3COC3)c(SC(C)C)s2)n1 [Compound B1, 1-(4-(4-chloro-2-(oxetan-3-yloxy)phenyl)-5-(isopropylthio)thiazol-2-yl)-3-methyl-1H-pyrazole-5-carboxylic acid]	> 40
Cc1cc(C(=O)O)n(-c2nc(-c3ccc(Cl)c(OC4COC4)c3)c(SC(C)C)s2)n1 [Compound B2, 1-(4-(4-chloro-3-(oxetan-3-yloxy)phenyl)-5-(isopropylthio)thiazol-2-yl)-3-methyl-1H-pyrazole-5-carboxylic acid]	> 40
Cc1nnc(-c2ccc(-c3nc(-n4nc(C)c(-c5cccc(F)c5)c4C(=O)O)sc3SC(C)C)cc2)o1 [Compound B3, 4-(3-fluorophenyl)-1-(5-(isopropylthio)-4-(4-(5-methyl-1,3,4-oxadiazol-2-yl)phenyl)thiazol-2-yl)-3-methyl-1H-pyrazole-5-carboxylic acid]	25 to 50
Cc1nn(-c2nc(C3=CCC(C)CC3)c(SC(C)C)s2)c(C(=O)O)c1-c1cccc(F)c1 (centres unmarked) [Compound B4, 4-(3-fluorophenyl)-1-(5-(isopropylthio)-4-(4-methylcyclohex-1-en-1-yl)thiazol-2-yl)-3-methyl-1H-pyrazole-5-carboxylic acid]	1 to 5
Cc1nn(-c2nc(C3=CCC(C)(C)CC3)c(SC(C)C)s2)c(C(=O)O)c1-c1cccc(F)c1 [Compound B6, 1-(4-(4,4-dimethylcyclohex-1-en-1-yl)-5-(isopropylthio)thiazol-2-yl)-4-(3-fluorophenyl)-3-methyl-1H-pyrazole-5-carboxylic acid]	< 1
Cc1nn(-c2nc(C3=CCC4(CC3)OCCO4)c(SC(C)C)s2)c(C(=O)O)c1-c1cccc(F)c1 [Compound B7, 4-(3-fluorophenyl)-1-(5-(isopropylthio)-4-(1,4-dioxaspiro[4.5]dec-7-en-8-yl)thiazol-2-yl)-3-methyl-1H-pyrazole-5-carboxylic acid]	25 to 50
Cc1nn(-c2nc(-c3ccc(Cl)c(C(=O)N4CCOCC4)c3)c(SC(C)C)s2)c(C(=O)O)c1-c1cccc(F)c1 [Compound B8, 1-(4-(4-chloro-3-(morpholine-4-carbonyl)phenyl)-5-(isopropylthio)thiazol-2-yl)-4-(3-fluorophenyl)-3-methyl-1H-pyrazole-5-carboxylic acid]	> 40
Cc1nn(-c2nc(-c3ccc(C(F)(F)F)cc3)c(SC(C)C)s2)c(C)c1-c1cccc(F)c1 [Compound B10, 2-(4-(3-fluorophenyl)-3,5-dimethyl-1H-pyrazol-1-yl)-5-(isopropylthio)-4-(4-(trifluoromethyl)phenyl)thiazole]	> 40
Cc1nn(-c2nc(N3CCCCC3)c(SC(C)C)s2)c(C(=O)O)c1-c1cccc(F)c1 [Compound B11, 4-(3-fluorophenyl)-1-(5-(isopropylthio)-4-(piperidin-1-yl)thiazol-2-yl)-3-methyl-1H-pyrazole-5-carboxylic acid]	10 to 25
Cc1nn(-c2nc(N3CCC(C(F)(F)F)CC3)c(SC(C)C)s2)c(C(=O)O)c1-c1cccc(F)c1 [Compound B12, 4-(3-fluorophenyl)-1-(5-(isopropylthio)-4-(4-(trifluoromethyl)piperidin-1-yl)thiazol-2-yl)-3-methyl-1H-pyrazole-5-carboxylic acid]	< 1
COc1nn(-c2nc(-c3ccc(C(F)(F)F)cc3)c(SC(C)C)s2)c(C(=O)O)c1-c1cccc(F)c1 [Compound B13, 4-(3-fluorophenyl)-1-(5-(isopropylthio)-4-(4-(trifluoromethyl)phenyl)thiazol-2-yl)-3-methoxy-1H-pyrazole-5-carboxylic acid]	1 to 5
Cc1nn(-c2nc(N3CCOCC3)c(SC(C)C)s2)c(C(=O)O)c1-c1cccc(F)c1 [Compound B14, 4-(3-fluorophenyl)-1-(5-(isopropylthio)-4-morpholinothiazol-2-yl)-3-methyl-1H-pyrazole-5-carboxylic acid]	> 40
CC(C)Sc1sc(-n2nc(O)c(-c3cccc(F)c3)c2C(=O)O)nc1-c1ccc(C(F)(F)F)cc1 [Compound B15, 4-(3-fluorophenyl)-3-hydroxy-1-(5-(isopropylthio)-4-(4-(trifluoromethyl)phenyl)thiazol-2-yl)-1H-pyrazole-5-carboxylic acid]	> 20
Cc1nn(-c2nc(-c3ccc(Cl)c(Cl)c3)n(CC(C)C)n2)c(C(=O)O)c1-c1cccc(F)c1 [Compound B16, 1-(5-(3,4-dichlorophenyl)-1-isobutyl-1H-1,2,4-triazol-3-yl)-4-(3-fluorophenyl)-3-methyl-1H-pyrazole-5-carboxylic acid]	> 20
Cc1nn(-c2nc(-c3ccc(Cl)c(Cl)c3)nn2CC(C)C)c(C(=O)O)c1-c1cccc(F)c1 [Compound B17, 1-(3-(3,4-dichlorophenyl)-1-isobutyl-1H-1,2,4-triazol-5-yl)-4-(3-fluorophenyl)-3-methyl-1H-pyrazole-5-carboxylic acid]	> 20
Cc1nn(-c2nc(N3CCC(F)(F)CC3)c(SC(C)C)s2)c(C(=O)O)c1-c1cccc(F)c1 [Compound B18, 1-(4-(4,4-difluoropiperidin-1-yl)-5-(isopropylthio)thiazol-2-yl)-4-(3-fluorophenyl)-3-methyl-1H-pyrazole-5-carboxylic acid]	1 to 5
COC(=O)c1c(-c2cccc(F)c2)c(C)nn1-c1nc(C2=CCC(C(F)(F)F)CC2)c(SC(C)C)s1 (centres unmarked) [Compound B20, methyl 4-(3-fluorophenyl)-1-(5-(isopropylthio)-4-(4-(trifluoromethyl)cyclohex-1-en-1-yl)thiazol-2-yl)-3-methyl-1H-pyrazole-5-carboxylate]	< 1
Cc1nn(-c2nc(C3CCC(C(F)(F)F)CC3)cs2)c(C(=O)O)c1-c1cccc(F)c1 (centres unmarked) [Compound B21, 4-(3-fluorophenyl)-3-methyl-1-(4-(4-(trifluoromethyl)cyclohexyl)thiazol-2-yl)-1H-pyrazole-5-carboxylic acid]	> 20
Cc1nn(-c2nc(-c3ccc(C(F)(F)F)cc3)c(CC(C)C)s2)c(C(=O)O)c1-c1cccc(F)c1 [Compound B22, 4-(3-fluorophenyl)-1-(5-isobutyl-4-(4-(trifluoromethyl)phenyl)thiazol-2-yl)-3-methyl-1H-pyrazole-5-carboxylic acid]	< 1
Cc1nn(-c2nc(N3CCN(CC(F)(F)F)CC3)c(SC(C)C)s2)c(C(=O)O)c1-c1cccc(F)c1 [Compound B23, 4-(3-fluorophenyl)-1-(5-(isopropylthio)-4-(4-(2,2,2-trifluoroethyl)piperazin-1-yl)thiazol-2-yl)-3-methyl-1H-pyrazole-5-carboxylic acid]	5 to 10
Cc1nn(-c2nc(N3CCC(C#N)CC3)c(SC(C)C)s2)c(C(=O)O)c1-c1cccc(F)c1 [Compound B24, 1-(4-(4-cyanopiperidin-1-yl)-5-(isopropylthio)thiazol-2-yl)-4-(3-fluorophenyl)-3-methyl-1H-pyrazole-5-carboxylic acid]	10 to 25
Cc1nn(-c2nc(N3CCN(C4CC4)CC3)c(SC(C)C)s2)c(C(=O)O)c1-c1cccc(F)c1 [Compound B25, 1-(4-(4-cyclopropylpiperazin-1-yl)-5-(isopropylthio)thiazol-2-yl)-4-(3-fluorophenyl)-3-methyl-1H-pyrazole-5-carboxylic acid]	5 to 10

Same assay, conditions: BJAB cell proliferation

SMILES	EC50
Cc1nn(-c2nc(-c3ccc(Cl)c(Cl)c3)c(SC(C)C)s2)c(C(=O)O)c1-c1cccc(F)c1 [Compound A151, 1-(4-(3,4-dichlorophenyl)-5-(isopropylthio)thiazol-2-yl)-4-(3-fluorophenyl)-3-methyl-1H-pyrazole-5-carboxylic acid]	A, B
Cc1nn(-c2nc(-c3ccc(C#N)cc3)c(SC(C)C)s2)c(C(=O)O)c1-c1cccc(F)c1 [Compound A213, 1-(4-(4-cyanophenyl)-5-(isopropylthio)thiazol-2-yl)-4-(3-fluorophenyl)-3-methyl-1H-pyrazole-5-carboxylic acid]	C-

Same assay, conditions: BJAB cell proliferation; read-out: EC50

SMILES	EC50 [µM]
Cc1nn(-c2nc(-c3ccc(Cl)c(Cl)c3)c(SC(C)C)s2)c(CO)c1-c1ccccc1 [Compound A88, (1-(4-(3,4-dichlorophenyl)-5-(isopropylthio)thiazol-2-yl)-3-methyl-4-phenyl-1H-pyrazol-5-yl)MeOH]	> 25
Cc1nn(-c2nc(-c3ccc(Cl)c(Cl)c3)c(SC(C)C)s2)c(C(=O)O)c1Cc1ccccc1NS(=O)(=O)N(C)C [Compound A122, 1-(4-(3,4-dichlorophenyl)-5-(isopropylthio)thiazol-2-yl)-4-(2-(N,N-dimethylsulfamoylamino)benzyl)-3-methyl-1H-pyrazole-5-carboxylic acid]	10 to 25

Same assay, conditions: Homo sapiens; BJAB cell proliferation; read-out: EC50

SMILES	EC50 [µM]
COc1cc(Cl)cc(-c2c(C)nn(-c3nc(-c4ccc(C(F)(F)F)cc4)c(SC(C)C)s3)c2C(=O)O)c1 [Compound A222, 4-(3-chloro-5-methoxyphenyl)-1-(5-(isopropylthio)-4-(4-(trifluoromethyl)phenyl)thiazol-2-yl)-3-methyl-1H-pyrazole-5-carboxylic acid]	< 1
Cc1nn(-c2nc(-c3ccc(OC(F)(F)F)cc3)c(SC(C)C)s2)c(C(=O)O)c1-c1cccc(F)c1 [Compound A223, 4-(3-fluorophenyl)-1-(5-(isopropylthio)-4-(4-(trifluoromethoxy)phenyl)thiazol-2-yl)-3-methyl-1H-pyrazole-5-carboxylic acid]	1 to 5
